Patent US20180049984A1 (priority 2014, published 2018)

System: Bp
Set-up: species or system BALB/c mice
Conditions: mouse, in vivo

gentamicin [free (i.e., unencapsulated) gentamicin]
bacterial burdens in lungs, livers, and spleens: 10^3-10^5 CFUs/organ
time to death of all mice after infection: ≤ 4 days
